# Where two headings read alike, the source gives them in different places.
# What was measured:
# [1] = test system: C. difficile spores (all strains); assay: Spore washing and germination, all strains; conditions: 0.5 mg/ml docusate exposure
# [2] = test system: C. difficile ATCC 700057 (VPI 11186); assay: MIC by broth microdilution, control strain ATCC 700057; assay type: cell-based, Clostridioides difficile
# Experimental: (§1) Susceptibility testing: The minimum inhibitory concentration (MIC), defined as the lowest concentration of an antimicrobial that will inhibit the visible growth of a microorganism, was determined for all isolates. […] Microwell plates containing omadacycline and BHI were used on the same day as their creation, and all media were reduced for 24 h prior. Media used to inoculate plates were created by suspending 24-h colonies in BHI to a McFarland standard of 0.5, which was added to each well, sufficient to about 1×10^6 CFU/ml. A total volume of […] was used, and plates were read after 24 h of incubation in the anaerobic hood. The lowest concentration without growth was determined to be the MIC. In accordance with CLSI recommendations, C. difficile ATCC 700057 was used as a control for each plate.
# [3] = test system: C. difficile 4118 (ATCC 1870); assay: MIC by broth microdilution, ATCC 1870; assay type: cell-based; conditions: Clostridioides difficile
# Experimental: as §1
# [4] = test system: C. difficile ICCD 0715 (clinical strain); assay: MIC by broth microdilution, ICCD 0715; assay type: cell-based; conditions: Clostridioides difficile, 24 h
# Experimental: as §1
# [5] = test system: C. difficile VPI 10463 (ATCC 43255); assay: MIC by broth microdilution, VPI 10463; assay type: cell-based; conditions: Clostridioides difficile
# Experimental: as §1
# [6] = test system: C. difficile 630 (ATCC BAA-1382); assay: MIC by broth microdilution, 630; assay type: cell-based; conditions: Clostridioides difficile
# Experimental: as §1
# [7] = test system: C. difficile strains used in this study; assay: MIC by broth microdilution, range over the strains used in this study; assay type: cell-based; conditions: Clostridioides difficile, read-out: MICs
# Experimental: as §1
# [8] = test system: C. difficile spores (four strains tested); assay: Time-kill curves, S-CFU, four strains tested; assay type: cell-based, Clostridioides difficile
# [9] = test system: C. difficile ATCC 1870 vegetative cells; assay: Time-kill curves, T-CFU versus S-CFU, ATCC 1870; assay type: cell-based, Clostridioides difficile
# [10] = test system: C. difficile VPI 10463; assay: CDI murine model, severe model; assay type: in vivo, C57BL/6 mice
# [11] = test system: C. difficile VPI 10463; assay: CDI murine model, non-severe model; assay type: in vivo, C57BL/6 mice
# [12] = cited from earlier work; for Fecal concentration: clinical dosing, oral
# [13] = ATCC 700057 (VPI 11186), R038, reduced BHI, 24 h, highest of replicates
# [14] = non-severe model, environmental contamination
structure (smiles),measurement,setting,value
CCCCC(CC)COC(=O)CC(C(=O)OCC(CC)CCCC)S(=O)(=O)O (centres unmarked) [docusate],Percent germination compared to all other treatments,[1],highest percent germination
"CN(C)c1cc(CNCC(C)(C)C)c(O)c2c1C[C@H]1C[C@H]3[C@H](N(C)C)C(O)=C(C(N)=O)C(=O)[C@@]3(O)C(O)=C1C2=O [Omadacycline, omadacycline]",MIC,[2]; [13],0.125 µg/mL
same,MIC,"[2]; Clostridioides difficile, ATCC700057, ATCC 700057 (VPI 11186), R038, reduced BHI, 24 h, highest of replicates, read-out: MIC",0.125 µg/mL
same,MIC,"[3]; ATCC1870, 4118 (ATCC 1870), R027, reduced BHI, 24 h, read-out: MIC",0.031 µg/mL
same,MIC,"[4]; ICCD 0715 (clinical strain), R027, reduced BHI, read-out: MIC",0.031 µg/mL
same,MIC,"[5]; ATCC43255, VP1 10463 (ATCC 43255), R087, reduced BHI, 24 h, read-out: MIC",0.063 µg/mL
same,MIC,"[6]; ATCCBAA1382, 630 (ATCC BAA-1382), R012, reduced BHI, 24 h, read-out: MIC",0.125 µg/mL
same,MIC,[7]; range for the strains used in this study,0.031 to 0.125 µg/mL
same,Effect on S-CFU,"[8]; antibiotic in BHI without germinants, throughout the treatment period (96 h), four strains",did not affect S-CFU
same,Killing of vegetative cells (T-CFU equaled S-CFU),"[9]; ATCC 1870, 24 to 96 h, with or without germinants",effective at killing vegetative cells
same,"Toxin amounts, day 1","[10]; mouse, in vivo",similar
same,Day 15 survival,"[10]; severe model, treatment started 30 hours after spore gavage, once daily until day 5, OMC 0.25 mg, VAN 1.5 mg oral gavage",60%
same,Mice succumbed to rCDI,[11]; by day 10,20%
same,"Final survival, survivors/total mice","[11]; mouse, in vivo",6/10
same,Mortality,"[11]; mouse, in vivo",40%
same,"Mice positive for C. difficile spores (spore shedding), day 15",[11]; non-severe model,60%
same,Final survival,"[11]; non-severe model, after clindamycin-induced relapse (days 10-12)",60%
same,"Positive cage swab rate, day 10",[11]; [14],8.3%
same,"Positive cage swabs, day 13",[11]; [14],no positive swabs
same,Fecal concentration,[12],approximately 430 mg/liter
same,Fecal excretion,[12]; in vivo,81%
"CN[C@H](CC(C)C)C(=O)N[C@H]1C(=O)N[C@@H](CC(N)=O)C(=O)N[C@H]2C(=O)N[C@H]3C(=O)N[C@H](C(=O)N[C@H](C(=O)O)c4cc(O)cc(O)c4-c4cc3ccc4O)[C@H](O)c3ccc(c(Cl)c3)Oc3cc2cc(c3O[C@@H]2O[C@H](CO)[C@@H](O)[C@H](O)[C@H]2O[C@H]2C[C@](C)(N)[C@H](O)[C@H](C)O2)Oc2ccc(cc2Cl)[C@H]1O [Vancomycin, vancomycin]",MIC,[2]; [13],2 µg/mL
same,MIC,"[2]; Clostridioides difficile, ATCC700057, 24 h",2 µg/mL
same,MIC,"[3]; ATCC1870, 24 h",2 µg/mL
same,MIC,[4],4 µg/mL
same,MIC,"[5]; ATCC43255, 24 h",1 µg/mL
same,MIC,"[6]; ATCCBAA1382, 24 h",4 µg/mL
same,MIC,[7],1 to 4 µg/mL
same,Effect on S-CFU,[8],did not affect S-CFU
same,Killing of vegetative cells (T-CFU equaled S-CFU),[9],effective at killing vegetative cells
same,"Median toxin A and B production, day 2","[10]; mouse, in vivo",significantly higher
same,"Toxin amounts, day 1","[10]; mouse, in vivo",similar
same,Weight loss and clinical scoring,"[10]; mouse, in vivo",higher
same,Day 15 survival,"[10]; mouse, in vivo, po",13.3%
same,Clinical scoring and weight loss (disease),"[11]; mouse, in vivo",more disease
same,Final survival,"[11]; mouse, in vivo",60%
same,"Final survival, survivors/total mice","[11]; mouse, in vivo",6/10
same,"Mice positive for C. difficile spores (spore shedding), day 15","[11]; mouse, in vivo",100%
same,Mice succumbed to rCDI,"[11]; mouse, in vivo",20%
same,Mortality,"[11]; mouse, in vivo",40%
same,"Positive cage swab rate, day 10","[11]; mouse, in vivo",8.3%
same,"Positive cage swabs, day 13","[11]; mouse, in vivo",25%
same,"Toxin amounts, day 10 and 13","[11]; mouse, in vivo",higher
same,Fecal concentration,[12],"2,000 mg/liter"

# From patent publication US12115170B2, “Compositions and methods of clostridiodides difficile treatment, decolonization, and prevention” (Wisconsin Alumni Research Foundation, priority 2021, dated 2024)
